# From US20200031778A1, “NOVEL 5-SUBSTITUTED IMIDAZOLYLMETHYL DERIVATIVES” (Bayer CropScience Aktiengesellschaft, priority 2016, published 2020)
# Test: Log P by HPLC on reversed phase columns (EEC directive 79/831 Annex V.A8; methods [a], [b], [c])
# Assay type: physicochemical
# Protocol: Measurement of Log P values was performed according to EEC directive 79/831 Annex V.A8 by HPLC (High Performance Liquid Chromatography) on reversed phase columns with the following methods: • ^[a] Log P value is determined by measurement of LC-UV, in an acidic range, with 0.1% formic acid in water and acetonitrile as eluent (linear gradient from 10% acetonitrile to 95% acetonitrile). • ^[b] Log P value is determined by measurement of LC-UV, in a neutral range, with 0.001 molar ammonium acetate solution in water and acetonitrile as eluent (linear gradient from 10% acetonitrile to 95% acetonitrile). • ^[c] Log P value is determined by measurement of LC-UV, in an acidic range, with 0.1% phosphoric acid and acetonitrile as eluent (linear gradient from 10% acetonitrile to 95% acetonitrile).
# If more than one Log P value is available within the same method, all the values are given and separated by “+”.
# Calibration was done with straight-chain alkan2-ones (with 3 to 16 carbon atoms) with known Log P values (measurement of Log P values using retention times with linear interpolation between successive alkanones). Lambda-max-values were determined using UV-spectra from 200 nm to 400 nm and the peak values of the chromatographic signals.
row,Compound,LogP
1,N#Cc1cncn1CC(O)(c1cc(F)cc(Cl)c1F)C1(F)CC1 (centres unmarked) [I-613],2.29^[a]
2,CC(O)(Cn1cncc1F)c1ccc(Oc2ccc(C(F)(F)F)nc2)nc1C(F)(F)F (centres unmarked) [I-290],2.06^[a]
3,CC(O)(Cn1cncc1Cl)c1ccc(Oc2ccc(Cl)cc2)cc1 (centres unmarked) [I-164],2.32^[a]
4,N#Cc1cncn1CC(O)(c1c(F)cc(F)cc1Br)C1(Cl)CC1 (centres unmarked) [I-566],2.49^[a]
5,CC(O)(Cn1cncc1Br)c1ccc(Oc2ccc(Cl)cc2)cc1Br (centres unmarked) [I-170],2.80^[a]
6,CN(C)C(=O)OC(Cn1cncc1C#N)c1ccc(Oc2ccc(Br)cc2)cc1C(F)(F)F (centres unmarked) [I-92],3.85^[a]
7,OC(Cn1cncc1Cl)c1ccc(Oc2ccc(Cl)cc2)cc1C(F)(F)F (centres unmarked) [I-21],2.86^[a]
8,COC(Cn1cncc1F)c1ccc(Oc2ccc(Cl)cc2)cc1C(F)(F)F (centres unmarked) [I-108],3.16^[a]
9,CC(O)(Cn1cncc1Br)c1ccc(Oc2ccc(Cl)cc2)cc1 (centres unmarked) [I-165],2.30^[a]
10,N#Cc1cncn1CC(O)c1cnc(Oc2ccc(S(F)(F)(F)(F)F)cc2)cc1C(F)(F)F (centres unmarked) [I-96],3.44^[a]
11,CC(=O)c1cncn1CC(C)(O)c1cnc(Oc2ccc(Cl)cc2)cc1C(F)(F)F (centres unmarked) [I-250],2.78^[a]
12,N#Cc1cncn1CC(O)(c1cc(F)cc(F)c1F)C1(Cl)CC1 (centres unmarked) [I-620],2.29^[a]
13,Cc1ccc(Oc2ccc(C(O)Cn3cncc3Cl)c(Cl)c2)cc1 (centres unmarked) [I-02],2.50^[a]
14,CC(O)(Cn1cncc1Br)c1ccc(Oc2ccc(I)cc2)cc1Br (centres unmarked) [I-186],3.23^[a]
15,OC(Cn1cncc1Cl)c1ccc(Oc2ccc(Cl)cn2)cc1Cl (centres unmarked) [I-37],1.98^[a]
16,CC(O)(Cn1cncc1F)c1cnc(Oc2ccc(Cl)cc2)cc1C(F)(F)F (centres unmarked) [I-240],2.30^[a]
17,OC(Cn1cncc1F)c1ccc(Oc2ccc(Cl)cc2)cc1C(F)(F)F (centres unmarked) [I-98],2.39^[a]
18,C=CC(C)C(O)(Cn1cncc1C#N)C1(F)CC1 (centres unmarked) [I-375],1.94^[a]
19,N#Cc1cncn1CC(O)(c1cc(F)cc(Cl)c1F)C1(Cl)CC1 (centres unmarked) [I-610],2.49^[a]

row,Compound,LogP
1,N#Cc1cncn1CC(=O)c1ccc(Oc2ccc(S(F)(F)(F)(F)F)cc2)nc1C(F)(F)F [IX-135],3.55^[a]
2,OC(Cn1cncc1F)c1ccc(Oc2ccc(Cl)cc2)cc1Cl (centres unmarked) [I-46],2.28^[a]
3,N#Cc1cncn1CC(O)(C#CCC1CCCCC1)C1(F)CC1 (centres unmarked) [I-539],3.11^[a]
4,OC(Cn1cncc1Cl)c1ccc(Oc2ccc(C(F)(F)F)cc2)cc1 (centres unmarked) [I-13],2.37^[a]
5,CC(C)CCCC(O)(Cn1cncc1C#N)C1(Cl)CC1 (centres unmarked) [I-599],3.33^[a]
6,CC(O)(Cn1cncc1Br)c1ccc(Oc2ccc(Cl)cc2)cc1C(F)(F)F (centres unmarked) [I-193],2.76^[a]
7,N#Cc1cncn1CC(O)(C#CCC1CCCCC1)C1CCC1 (centres unmarked) [I-592],3.51^[a]
8,OC(Cn1cncc1Cl)c1ccc(Oc2ccc(Br)cc2)cc1C(F)(F)F (centres unmarked) [I-20],2.96^[a]
9,CC(=O)c1cncn1CC(C)(O)c1ccc(Oc2ccc(C(F)(F)F)nc2)nc1C(F)(F)F (centres unmarked) [I-291],2.27^[a]
10,N#Cc1cncn1CC(O)(CCCC(Cl)CCl)C1(F)CC1 (centres unmarked) [I-678],2.54'^[a]
11,COc1ccc(Oc2ccc(C(O)Cn3cncc3Cl)c(Cl)n2)c(Cl)c1 (centres unmarked) [I-16],2.23^[a]
12,OC(Cn1cncc1Br)c1ccc(Oc2ccc(Cl)cc2)cc1C(F)(F)F (centres unmarked) [I-29],2.84^[a]
13,OC(Cn1cncc1C(F)(F)F)c1ccc(Oc2ccc(Cl)cc2)cc1F (centres unmarked) [I-90],3.4^8[a]
14,N#Cc1cncn1CC(O)(c1cc(F)cc(F)c1Cl)C1(Cl)CC1 (centres unmarked) [I-619],2.33^[a]
15,N#Cc1cncn1CC(O)(C#Cc1cc(F)cc(F)c1)C1(Cl)CC1 (centres unmarked) [I-319],2.59^[a]
16,CC(=O)c1cncn1CC(C)(O)c1cnc(Oc2ccc(C(F)(F)F)cc2)cc1Cl (centres unmarked) [I-246],2.76^[a]
17,CC(O)(Cn1cncc1Cl)c1ccc(Oc2ccc(Br)cc2)cc1C(F)(F)F (centres unmarked) [I-169],2.90^[a]
18,N#Cc1cncn1CC(O)(c1cc(F)c(Cl)cc1Cl)C1(F)CC1 (centres unmarked) [I-578],2.59^[a]

# Next, values leading:
row,LogP,Compound
1,2.80^[a],CC(O)(Cn1cncc1C#N)c1cnc(Oc2ccc(C(F)F)cc2)cc1C(F)(F)F (centres unmarked) [I-341]
2,2.78^[a],N#Cc1cncn1CC(O)(c1ccc(Cl)cc1Br)C1(Cl)CC1 (centres unmarked) [I-384]
3,3.02^[a],CC(C)C(O)(Cn1cncc1C#N)c1ccc(Cl)cc1Br (centres unmarked) [I-416]
4,2.36^[a],CC(O)(Cn1cncc1F)c1cnc(Oc2ccc(C(F)(F)F)cc2)cc1Br (centres unmarked) [I-243]
5,2.47^[a],N#Cc1cncn1CC(O)(c1c(F)ccc(Cl)c1F)C1(Cl)CC1 (centres unmarked) [I-622]
6,2.32^[a],CCC(O)(Cn1cncc1C#N)c1ccc(Cl)cc1 (centres unmarked) [I-222]
7,2.54^[a],N#Cc1cncn1CC(O)(c1ccc(F)c(Br)c1F)C1(Cl)CC1 (centres unmarked) [I-616]
8,3.41^[a],CCCCC(O)(Cn1cncc1C#N)c1ccc(Cl)cc1Cl (centres unmarked) [I-261]
9,2.75^[a],N#Cc1cncn1CC(O)c1ccc(Oc2ccc(Cl)cn2)cc1C(F)(F)F (centres unmarked) [I-66]
10,2.38^[a],N#Cc1cncn1CC(O)(c1cc(F)cc(Cl)c1)C1(F)CC1 (centres unmarked) [I-474]
11,3.29^[a],CC(O)(Cn1cncc1C#N)c1ccc(Oc2ccc(Br)cc2)cc1F (centres unmarked) [I-191]
12,3.59^[a],CC(C)(C)C(O)(Cn1cncc1C#N)c1cc(Cl)c(Cl)c(Cl)c1 (centres unmarked) [I-546]
13,2.94^[a],N#Cc1cncn1CC(O)(c1ccc(-c2ccccc2)cc1)C1(Cl)CC1 (centres unmarked) [I-280]
14,3.44^[a],CC(O)(Cn1cncc1C#N)c1cnc(Oc2ccc(Cl)cc2)cc1C(F)(F)F (centres unmarked) [I-249]
15,2.51^[a],N#Cc1cncn1CC(O)(c1ccc(Cl)c(Cl)c1)C1(F)CC1 (centres unmarked) [I-487]
16,3.23^[a],CCCC(O)(Cn1cncc1C#N)c1ccc(C(F)(F)F)cc1Cl (centres unmarked) [I-421]
17,2.76^[a],N#Cc1cncn1CC(O)(c1ccc(Br)cc1Cl)C1(F)CC1 (centres unmarked) [I-376]
18,2.82^[a],N#Cc1cncn1CC(O)(c1cc(Br)cc(Br)c1)C1(F)CC1 (centres unmarked) [I-469]
19,3.02^[a],CC(C)C(O)(Cn1cncc1C#N)c1ccc(Br)cc1Cl (centres unmarked) [I-422]
20,2.94^[a],N#Cc1cncn1CC(O)c1ccc(Oc2ccc(Cl)cc2F)nc1C(F)(F)F (centres unmarked) [I-136]
21,3.73^[a],CC(O)(Cn1cncc1C#N)c1ccc(Oc2ccc(I)cc2)cc1Cl (centres unmarked) [I-202]
22,2.58^[a],N#Cc1cncn1CC(O)(c1ccc(F)c(Cl)c1Cl)C1(Cl)CC1 (centres unmarked) [I-618]
23,2.43^[a],N#Cc1cncn1CC(O)(c1ccc(Br)cc1F)C1(F)CC1 (centres unmarked) [I-403]
24,2.90^[a],N#Cc1cncn1CC(O)(C#CC1(c2ccccc2)CC1)C1(Cl)CC1 (centres unmarked) [I-606]
25,3.17^[a],C[Si](C)(C)CC(O)(Cn1cncc1C#N)c1ccccc1F (centres unmarked) [I-271]
26,2.44^[a],CC(O)(Cn1cncc1C#N)c1ccc(Oc2ccc(Br)nc2)nc1C(F)(F)F (centres unmarked) [I-364]

row,LogP,Compound
1,3.79^[a],CC(C)(C)C#Cc1ccc(C(O)(Cn2cncc2C#N)C2(Cl)CC2)c(F)c1 (centres unmarked) [I-653]
2,3.72^[a],CC(C)(C)C(O)(C#CCC1CCCCC1)Cn1cncc1C#N (centres unmarked) [I-541]
3,2.86^[a],N#Cc1cncn1CC(O)(c1ccc(F)cc1Br)C1CCC1 (centres unmarked) [I-449]
4,2.41^[a],N#Cc1cncn1CC(O)(c1ccc(F)c(F)c1Cl)C1(Cl)CC1 (centres unmarked) [I-628]
5,2.18^[a],N#Cc1cncn1CC(O)(CC1CC1)c1cc(F)ccc1F (centres unmarked) [I-515]
6,2.02^[a],N#Cc1cncn1CC(O)(c1cc(F)ccc1F)C1(F)CC1 (centres unmarked) [I-523]
7,1.99^[a],COc1ccc(C(O)(Cn2cncc2C#N)C2(F)CC2)c(Cl)n1 (centres unmarked) [I-549]
8,2.18^[a],N#Cc1cncn1CC(O)(c1ccc(F)c(F)c1F)C1(F)CC1 (centres unmarked) [I-634]
9,2.21^[a],C#Cc1ccc(C(O)(Cn2cncc2C#N)C2(F)CC2)c(F)c1 (centres unmarked) [I-647]
10,2.80^[a],CCCCC(O)(Cn1cncc1C#N)c1ccccc1Cl (centres unmarked) [I-282]
11,3.23^[a],COC(Cn1cncc1C#N)c1ccc(Oc2ccccc2)cc1F (centres unmarked) [I-100]
12,1.31^[a],N#Cc1cncn1CC(O)c1ccccc1F (centres unmarked) [I-139]
13,3.83^[a],CC(C)(C)C#Cc1ccc(C(O)(Cn2cncc2C#N)C2(F)CC2)c(Cl)c1 (centres unmarked) [I-642]
14,3.09^[a],Cc1ccc(C)c(C#CC(O)(Cn2cncc2C#N)C2(Cl)CC2)c1 (centres unmarked) [I-298]
15,2.45^[a],N#Cc1cncn1CC(O)(c1cc(Br)ccc1Cl)C1(F)CC1 (centres unmarked) [I-633]
16,2.90^[a],CC(C)(C)C(O)(Cn1cncc1C#N)c1ccc(F)c(Cl)c1 (centres unmarked) [I-455]
17,2.94^[a],Cn1ccc2cc(C(O)(Cn3cncc3C#N)CC(C)(C)C)ccc21 (centres unmarked) [I-377]
18,3.44^[a],N#Cc1cncn1CC(O)(CC1CCCCC1)c1ccc(F)cc1F (centres unmarked) [I-466]
19,3.48^[a],N#Cc1cncn1CC(O)c1ccc(Oc2ccc(I)cc2)cc1Br (centres unmarked) [I-110]
20,2.52^[a],Cc1ccc(C#CC(O)(Cn2cncc2C#N)C2(F)CC2)cc1 (centres unmarked) [I-373]
21,4.51^[a],CCOC(Cn1cncc1C#N)c1ccc(Oc2ccc(Cl)cc2)cc1Br (centres unmarked) [I-62]
22,2.16^[a],N#Cc1cncn1CC(O)(c1cc(F)ccc1Cl)C1(F)CC1 (centres unmarked) [I-439]
23,3.05^[a],CCCC(O)(Cn1cncc1C#N)c1ccc(Cl)cc1C(F)(F)F (centres unmarked) [I-461]
24,2.67^[a],N#Cc1cncn1CC(O)(c1ccc(Cl)cc1Cl)C1(Cl)CC1 (centres unmarked) [I-235]
25,2.75^[a],CC(C)(C)C(O)(Cn1cncc1Cl)c1cc2cc(OC(F)(F)F)ccc2o1 (centres unmarked) [I-215]
26,2.74^[a],N#Cc1cncn1CC(O)(CC1CC1)c1cc(F)c(F)c(Br)c1 (centres unmarked) [I-494]
